# Patent EP3002287B1, “Thiochromeno[2,3-c]quinolin-12-one derivatives and their use as topoisomerase inhibitors” (National Defense Medical Center, priority 2014, dated 2016)
# Experiments:
# Experiment in all cases: NCI in vitro 60-cell drug screen (SRB assay)
# Assay type in all cases: cell-based
# SN12C = SN12C (Renal cancer); 10^-5 molar concentration; 48 hours
# DU-145 = DU-145 (Prostate cancer); 10^-5 molar concentration; 48 hours
# RPMI-8226 = RPMI-8226 (Leukemia); 10^-5 molar concentration; 48 hours
# SNB-75 = SNB-75 (CNS cancer); 10^-5 molar concentration; 48 hours
# SW-620 = SW-620 (Colon cancer); 10^-5 molar concentration; 48 hours
# U251 = U251 (CNS cancer); 10^-5 molar concentration; 48 hours
# NCI-H23 = NCI-H23 (Non-small cell lung cancer); 10^-5 molar concentration; 48 hours
# IGROV1 = IGROV1 (Ovarian cancer); 10^-5 molar concentration; 48 hours
# OVCAR-8 = OVCAR-8 (Ovarian cancer); 10^-5 molar concentration; 48 hours
# NCI-H522 = NCI-H522 (Non-small cell lung cancer); 10^-5 molar concentration; 48 hours
# LOX IMVI = LOX IMVI (Melanoma); 10^-5 molar concentration; 48 hours
# CCRF-CEM = CCRF-CEM (Leukemia); 10^-5 molar concentration; 48 hours
# SNB-19 = SNB-19 (CNS cancer); 10^-5 molar concentration; 48 hours
# SF-295 = SF-295 (CNS cancer); 10^-5 molar concentration; 48 hours
# SK-MEL-5 = SK-MEL-5 (Melanoma); 10^-5 molar concentration; 48 hours
# COLO 205 = COLO 205 (Colon cancer); 10^-5 molar concentration; 48 hours
# HT29 = HT29 (Colon cancer); 10^-5 molar concentration; 48 hours
# HCT-15 = HCT-15 (Colon cancer); 10^-5 molar concentration; 48 hours
# M14 = M14 (Melanoma); 10^-5 molar concentration; 48 hours
# HCC-2998 = HCC-2998 (Colon cancer); 10^-5 molar concentration; 48 hours
# MALME-3M = MALME-3M (Melanoma); 10^-5 molar concentration; 48 hours
# T-47D = T-47D (Breast cancer); 10^-5 molar concentration; 48 hours
# HCT-116 = HCT-116 (Colon cancer); 10^-5 molar concentration; 48 hours
# HOP-92 = HOP-92 (Non-small cell lung cancer); 10^-5 molar concentration; 48 hours
# SK-MEL-28 = SK-MEL-28 (Melanoma); 10^-5 molar concentration; 48 hours
# OVCAR-3 = OVCAR-3 (Ovarian cancer); 10^-5 molar concentration; 48 hours
# SF-268 = SF-268 (CNS cancer); 10^-5 molar concentration; 48 hours
# MOLT-4 = MOLT-4 (Leukemia); 10^-5 molar concentration; 48 hours
# MDA-MB-486 = MDA-MB-486 (Breast cancer); 10^-5 molar concentration; 48 hours
# NCI-H322M = NCI-H322M (Non-small cell lung cancer); 10^-5 molar concentration; 48 hours
# UACC-257 = UACC-257 (Melanoma); 10^-5 molar concentration; 48 hours
# 786-0 = 786-0 (Renal cancer); 10^-5 molar concentration; 48 hours
# UACC-62 = UACC-62 (Melanoma); 10^-5 molar concentration; 48 hours
# OVCAR-5 = OVCAR-5 (Ovarian cancer); 10^-5 molar concentration; 48 hours
# CAKI-1 = CAKI-1 (Renal cancer); 10^-5 molar concentration; 48 hours
# MDA-MB-231/ATCC = MDA-MB-231/ATCC (Breast cancer); 10^-5 molar concentration; 48 hours
# MDA-MB-435 = MDA-MB-435 (Melanoma); 10^-5 molar concentration; 48 hours
Compound,Growth percent (SN12C),Growth percent (DU-145),Growth percent (RPMI-8226),Growth percent (SNB-75),Growth percent (SW-620),Growth percent (U251),Growth percent (NCI-H23),Growth percent (IGROV1),Growth percent (OVCAR-8),Growth percent (NCI-H522),Growth percent (LOX IMVI),Growth percent (CCRF-CEM),Growth percent (SNB-19),Growth percent (SF-295),Growth percent (SK-MEL-5),Growth percent (COLO 205),Growth percent (HT29),Growth percent (HCT-15),Growth percent (M14),Growth percent (HCC-2998),other results
"O=c1c2cc(Cl)ccc2sc2c(N3CCOCC3)nc3ccccc3c12 [Compound 13, 10-Chloro-6-morpholino-12H-thiochromeno[2,3-c]quinolin-12-one]",96.81%,110.81%,89.54%,76.88%,96.18%,98.58%,95.21%,80.90%,83.66%,89.60%,89.82%,88.02%,99.37%,93.62%,95.88%,99.24%,83.73%,93.81%,110.35%,108.75%,Growth percent (MALME-3M): 118.84%; Growth percent (T-47D): 80.00%; Growth percent (HCT-116): 85.71%; Growth percent (HOP-92): 60.43%; Growth percent (SK-MEL-28): 111.28%; Growth percent (OVCAR-3): 96.54%; Growth percent (SF-268): 103.56%; Growth percent (MOLT-4): 89.31%; Growth percent (MDA-MB-486): 39.67%; Growth percent (NCI-H322M): 88.41%; Growth percent (UACC-257): 110.91%; Growth percent (786-0): 99.31%; Growth percent (UACC-62): 87.86%; Growth percent (OVCAR-5): 95.97%; Growth percent (CAKI-1): 90.00%; Growth percent (MDA-MB-231/ATCC): 71.53%; Growth percent (MDA-MB-435): 102.07%
"CN1CCN(c2nc3ccccc3c3c(=O)c4cc(Cl)ccc4sc23)CC1 [Compound 8, 10-Chloro-6-(4-methylpiperazin-1-yl)-12H-thiochromeno[2,3-c]q uinolin-12-one]",83.03%,103.45%,91.11%,42.15%,95.50%,92.52%,81.11%,80.08%,89.44%,98.78%,87.47%,91.60%,87.07%,91.69%,99.54%,90.06%,78.65%,93.94%,102.15%,96.87%,Growth percent (MALME-3M): 108.36%; Growth percent (T-47D): 82.24%; Growth percent (HCT-116): 80.94%; Growth percent (HOP-92): 17.97%; Growth percent (SK-MEL-28): 107.92%; Growth percent (OVCAR-3): 89.13%; Growth percent (SF-268): 82.98%; Growth percent (MOLT-4): 87.97%; Growth percent (MDA-MB-486): 102.02%; Growth percent (NCI-H322M): 77.04%; Growth percent (UACC-257): 100.55%; Growth percent (786-0): 90.48%; Growth percent (UACC-62): 99.27%; Growth percent (OVCAR-5): 98.14%; Growth percent (CAKI-1): 87.50%; Growth percent (MDA-MB-231/ATCC): 57.30%; Growth percent (MDA-MB-435): 105.80%
"O=C(O)c1c(Sc2ccc(Cl)cc2)c(O)nc2ccccc12 [Compound 2, 3-((4-Chlorophenyl)thio)-2-hydroxyquinoline-4-carboxylic acid]",95.83%,115.22%,98.10%,82.18%,96.92%,99.59%,92.61%,103.57%,114.68%,81.64%,90.46%,98.31%,97.17%,98.99%,98.07%,108.65%,101.41%,107.80%,106.90%,100.97%,Growth percent (MALME-3M): 107.05%; Growth percent (T-47D): 99.59%; Growth percent (HCT-116): 103.87%; Growth percent (HOP-92): 72.97%; Growth percent (SK-MEL-28): 98.95%; Growth percent (OVCAR-3): 121.29%; Growth percent (SF-268): 113.60%; Growth percent (MOLT-4): 97.25%; Growth percent (MDA-MB-486): 104.57%; Growth percent (NCI-H322M): 101.10%; Growth percent (UACC-257): 121.83%; Growth percent (786-0): 104.44%; Growth percent (UACC-62): 102.05%; Growth percent (OVCAR-5): 112.47%; Growth percent (CAKI-1): 76.26%; Growth percent (MDA-MB-231/ATCC): 95.70%; Growth percent (MDA-MB-435): 102.02%
"O=c1c2cc(Cl)ccc2sc2c(N3CCN(Cc4ccccc4)CC3)nc3ccccc3c12 [Compound 11, 6-(4-Benzylpiperazin-1-yl)-10-chloro-12H-thiochromeno[2,3-c]q uinolin-12-one]",97.70%,111.61%,96.63%,82.62%,93.08%,96.69%,89.94%,93.49%,98.54%,96.69%,94.22%,95.42%,95.52%,94.34%,98.38%,105.64%,102.71%,94.51%,93.00%,99.32%,Growth percent (MALME-3M): 112.36%; Growth percent (T-47D): 89.22%; Growth percent (HCT-116): 98.59%; Growth percent (HOP-92): 70.17%; Growth percent (SK-MEL-28): 104.19%; Growth percent (OVCAR-3): 101.69%; Growth percent (SF-268): 100.42%; Growth percent (MOLT-4): 90.91%; Growth percent (MDA-MB-486): 98.53%; Growth percent (NCI-H322M): 88.92%; Growth percent (UACC-257): 95.39%; Growth percent (786-0): 105.57%; Growth percent (UACC-62): 96.00%; Growth percent (OVCAR-5): 111.92%; Growth percent (CAKI-1): 94.03%; Growth percent (MDA-MB-231/ATCC): 89.11%; Growth percent (MDA-MB-435): 96.99%
